Reference: patent US6790645B2, “Oxidation of a cyclohexanone derivative using a brevibacterium cyclohexanone monooxygenase” (E. I. du Pont de Nemours and Company, priority 1999, dated 2004)

Tests used:
[1] = tested on: Brevibacterium monooxygenase 1 (ORF 1.3); test: Spectrophotometric monooxygenase assay (NADPH oxidation at 340 nm), substrate specificity for cyclic ketones, monooxygenase 1; type: biochemical, Brevibacterium sp HCU; details: NADPH 0.3 mM, pH7, 30° C., activities below 2.0 could reflect contaminants
Experimental: (§1) The cyclohexanone monooxygenase activity of each overexpressed enzyme was assayed spectrophotometrically at 340 nm by monitoring the oxidation of NADPH. In a spectrophotometer cuvette containing 50 mM Tris-HCl, 50 mM K Acetate pH7 at 30° C. NADPH 0.3 mM and 20-50 μg of homogenous monooxygenase the reaction was initiated by the addition of 1 mM of cyclohexanone. Substrate specificity of each enzyme was tested with other cyclic ketones added at 0.1 or 0.5 mM.
(§2) Expression of the His6-tagged proteins was done by growing the cells carrying the expression plasmids in 1 l of Luria-Bertani broth (Miller 1972) containing Ampicillin (100 μg/ml) and tetracyclin (10 μg/ml) at 28° C. Riboflavin (1 μg/ml) was also added to the medium since both monooxygenases are flavoproteins. When the absortion reached 0.5 at 600 nm, 1 mM isopropy-thio-b-galactoside (IPTG) was added to the culture. Cells were harvested 1.5 hr later, resuspended in 2 ml of 300 mM NaCl 5% glycerol 20 mM Tris-HCl pH 8.0 (Buffer A) containing 10 mM EDTA and 100 μg lysozyme and disrupted by three freeze/thaw cycles. Nucleic acids were digested by addition of MgCl2 (20 mM) RNAseA and DNAse I (10 μg each). The particulate fraction was removed by centrifugation at 14,000 RPM and the supernatant was mixed for 1 hr at 4° C. with 100 μl of a metal chelation agarose (Ni-NTA Superflow Qiagen, Valencia, Calif.) saturated with Ni(II) and equilibrated Buffer A containing 5 mM imidazole. The resin was washed bathchwise with 10 ml each of Buffer A containing 5, 10, 15, 20, 40, 80, 150 and 300 mM respectively. The bound proteins were eluted between 80 and 150 mM imidazole. Eluted proteins were concentrated by ultrafiltration with a Centricon device (cut off 10,000 Da, Amicon) and the buffer replaced by Buffer A. Homogeneity of the overexpressed proteins is shown in FIG. 3, which show a gel electrophoresis separation of proteins from control E. coli (lane 1), E. coli expressing ORF 1.3 (lane 2) and E. coli expressing ORF 2.4 (lane 3).
(§3) Each monooxygenase oxidized cyclohexanone as measured spectrophoto-metrically by monitoring the oxidation of NADPH at 340 nm. No activity was observed when NADPH was replaced by NADH. The product of the cyclohexanone oxidation was confirmed to be caprolactone by GC-MS analysis. Monooxygenase 1 and 2 have different substrate specificity relative to the number of carbon atoms, the oxidation or the substitution of the ring.

[2] = tested on: Brevibacterium monooxygenase 2 (ORF 2.4); test: Spectrophotometric monooxygenase assay (NADPH oxidation at 340 nm), substrate specificity for cyclic ketones, monooxygenase 2; type: biochemical, Brevibacterium sp HCU; details: NADPH 0.3 mM, pH7, 30° C., activities below 2.0 could reflect contaminants
Experimental: as §1, §2, §3

[3] = tested on: E. coli strains carrying plasmids pPCB1 and pPCB2 that express the monooxygenase ORF 1.3 and ORF 2.4; test: Conversion of cyclohexanone into caprolactone by cell suspensions, GC-MS; type: cell-based; details: 100 ppm cyclohexanone, M9 medium with 0.2% glucose, IPTG-induced cells (FIG. 5)
Experimental: Confirmation of the oxidation of cyclohexanone into caprolactone was determined by GC-Mass Spectrometry on a HP 5890 Gas Chromatograph with HP 5971 mass selective detector equipped with a HP-1 capillary column (Hewlett Packard). Prior to analysis, samples were acidified to pH 3 by HCl, extracted by dichloromethane three times, dried with MgSO4 and filtered.
Twenty ml cultures of E. coli strains carrying plasmids pPCB1 and pPCB2 that express the monooxygenase ORF 1.3 and ORF 2.4 respectively were grown at 30° C. in LB medium containing Ampicillin (100 μg/ml) and tetracyclin (10 μg/ml). When the absorbance reached 0.1 at 600 nm, 1 mM IPTG was added to the culture to induce the monooxygenases. After 1 hr, the cultures were chilled and washed twice with M9 mineral medium (Sambrook, J., Fritsch, E. F. and Maniatis, T. Molecular Cloning: A Laboratory Manual, Second Edition, Cold Spring Harbor Laboratory Press, Cold Spring Harbor (1989)) and resuspended in 2 ml of the same medium containing 0.2% glucose and 100 ppm of cyclohexanone. After one hr the cells were removed from the culture by centrifugation and supernatant was analyzed by GC-MS as described in the General Methods. The GC-MS analysis indicated the disappearance of cyclohexanone and the appearance of caprolactone. […]

Structure (SMILES) | Mono 1 rate ([1]; substrate 0.1 mM) [min⁻¹] | Mono 1 rate ([1]; substrate 0.5 mM) [min⁻¹] | Mono 2 rate ([2]; substrate 0.1 mM) [min⁻¹] | Mono 2 rate ([2]; substrate 0.5 mM) [min⁻¹] | time until all cyclohexanone was oxidized [3]
O=C1CCCCC1=O [1,2-cyclohexanedione] | 9 | 52 | 7.6 | 34 | –
O=C1CCCC(=O)C1 [1,3-cyclohexanedione] | 0.3 | 1.2 | 18 | 60 | –
O=C1CCC(=O)CC1 [1,4-cyclohexanedione] | 130 | 210 | 53 | 88 | –
O=C1CCCCC1C1=CCCCC1 (centres unmarked) [2-(cyclohex-1-enyl)cyclohexanone] | 160 | 260 | – | 2.4 | –
CC1CCCCC1=O (centres unmarked) [2-methylcyclohexanone] | 250 | 260 | 37 | 97 | –
CC1CCCC1=O (centres unmarked) [2-methylcyclopentanone] | 40 | 110 | 120 | 110 | –
O=C1CCC1 [cyclobutanone] | 235 | 171 | 92 | 96 | –
O=C1CCCCCCCCC1 [cyclodecanone] | – | 1 | 1.8 | 1.2 | –
O=C1CCCCCCCCCCC1 [cyclododecanone] | 1 | 0.9 | 1.2 | 1.8 | –
O=C1CCCCCC1 [cycloheptanone] | 4.5 | 18 | 3.9 | 8.6 | –
O=C1C=CCCC1 [cyclohex-2-ene-1-one] | 2.3 | 1.9 | 64 | 80 | –
O=C1CCCCC1 [cyclohexanone] | 160 | 290 | 100 | 100 | about 75 min
O=C1CCCCCCC1 [cyclooctanone] | 0.9 | 0.4 | 1.3 | 1.3 | –
O=C1CCCC1 [cyclopentanone] | 1.2 | 7.0 | 90 | 120 | –
O=C1CCCCCCCCCC1 [cycloundecanone] | 1.2 | 1.4 | 0.6 | 0.9 | –
